Assays:
[1] = test system: DU-145; assay: Cytotoxicity against human DU145 cells by sulforhodamine B assay; format: functional
[2] = test system: PC-3; assay: Cytotoxicity against human PC3 cells by sulforhodamine B assay; format: functional
[3] = test system: CAKI-1; assay: Cytotoxicity against human CAKI-1 cells by sulforhodamine B assay; format: functional
[4] = Cytotoxicity against human OVCAR5 cells by sulforhodamine B assay; format: functional
[5] = Cytotoxicity against human UACC257 cells by sulforhodamine B assay; format: functional
[6] = test system: U-251; assay: Cytotoxicity against human U251 cells by sulforhodamine B assay; format: functional
[7] = test system: SNB-19; assay: Cytotoxicity against human SNB19 cells by sulforhodamine B assay; format: functional
[8] = test system: CCRF-CEM; assay: Growth inhibition of human CCRF-CEM cells assessed as cell growth at 10 uM by sulforhodamine B assay relative to control; format: functional; settings: values are per cent of control
[9] = test system: PC-3; assay: Growth inhibition of human PC3 cells assessed as cell growth at 10 uM by sulforhodamine B assay relative to control; values are per cent of control
[10] = Growth inhibition of human UO31 cells assessed as cell growth at 10 uM by sulforhodamine B assay relative to control; values are per cent of control; settings: UO-31
[11] = test system: ACHN; assay: Growth inhibition of human ACHN cells assessed as cell growth at 10 uM by sulforhodamine B assay relative to control; values are per cent of control
[12] = test system: A498; assay: Growth inhibition of human A498 cells assessed as cell growth at 10 uM by sulforhodamine B assay relative to control; values are per cent of control
[13] = test system: U-251; assay: Growth inhibition of human U251 cells assessed as cell growth at 10 uM by sulforhodamine B assay relative to control; values are per cent of control
[14] = test system: KM12; assay: Growth inhibition of human KM12 cells assessed as cell growth at 10 uM by sulforhodamine B assay relative to control; values are per cent of control
[15] = test system: K562; assay: Growth inhibition of human K562 cells assessed as cell growth at 10 uM by sulforhodamine B assay relative to control; values are per cent of control
[16] = test system: BT-549; assay: Growth inhibition of human BT549 cells assessed as cell growth at 10 uM by sulforhodamine B assay relative to control; values are per cent of control
[17] = test system: DU-145; assay: Growth inhibition of human DU145 cells assessed as cell growth at 10 uM by sulforhodamine B assay relative to control; values are per cent of control
[18] = test system: SNB-75; assay: Growth inhibition of human SNB75 cells assessed as cell growth at 10 uM by sulforhodamine B assay relative to control; values are per cent of control
[19] = test system: SF-268; assay: Growth inhibition of human SF268 cells assessed as cell growth at 10 uM by sulforhodamine B assay relative to control; values are per cent of control
[20] = test system: HOP-62; assay: Growth inhibition of human HOP62 cells assessed as cell growth at 10 uM by sulforhodamine B assay relative to control; values are per cent of control
[21] = Growth inhibition of human RXF393 cells assessed as cell growth at 10 uM by sulforhodamine B assay relative to control; values are per cent of control; settings: RXF 393
[22] = test system: CAKI-1; assay: Growth inhibition of human CAKI-1 cells assessed as cell growth at 10 uM by sulforhodamine B assay relative to control; values are per cent of control
[23] = Growth inhibition of human OVCAR5 cells assessed as cell growth at 10 uM by sulforhodamine B assay relative to control; values are per cent of control; settings: OVCAR-5
[24] = test system: OVCAR-3; assay: Growth inhibition of human OVCAR3 cells assessed as cell growth at 10 uM by sulforhodamine B assay relative to control; values are per cent of control
[25] = test system: IGROV-1; assay: Growth inhibition of human IGROV1 cells assessed as cell growth at 10 uM by sulforhodamine B assay relative to control; values are per cent of control
[26] = test system: UACC-62; assay: Growth inhibition of human UACC62 cells assessed as cell growth at 10 uM by sulforhodamine B assay relative to control; values are per cent of control
[27] = Growth inhibition of human UACC257 cells assessed as cell growth at 10 uM by sulforhodamine B assay relative to control; values are per cent of control; settings: UACC-257
[28] = test system: NCI-H460; assay: Growth inhibition of human NCI-H460 cells assessed as cell growth at 10 uM by sulforhodamine B assay relative to control; values are per cent of control
[29] = test system: NCI-H226; assay: Growth inhibition of human NCI-H226 cells assessed as cell growth at 10 uM by sulforhodamine B assay relative to control; values are per cent of control
[30] = test system: RPMI-8226; assay: Growth inhibition of human RPMI8226 cells assessed as cell growth at 10 uM by sulforhodamine B assay relative to control; values are per cent of control
[31] = test system: SK-MEL-28; assay: Growth inhibition of human SK-MEL-28 cells assessed as cell growth at 10 uM by sulforhodamine B assay relative to control; values are per cent of control
[32] = test system: A549; assay: Growth inhibition of human A549/ATCC cells assessed as cell growth at 10 uM by sulforhodamine B assay relative to control; values are per cent of control
[33] = test system: MDA-MB-231; assay: Growth inhibition of human MDA-MB-231 cells assessed as cell growth at 10 uM by sulforhodamine B assay relative to control; values are per cent of control
[34] = read-out: LC50 (the source's name)

SMILES: COc1ccc(C(=O)/C=C/c2ccc(/C=C/c3cc(OC)c(OC)c(OC)c3)cc2)cc1
- GI50 [1]: 10.2 µM
- TGI [1]: > 100 µM
- CC50 [1, 34]: > 100 µM
- GI50 [2]: 5.65 µM
- TGI [2]: > 100 µM
- CC50 [2, 34]: > 100 µM
- GI50 [3]: 14.6 µM
- TGI [3]: > 100 µM
- CC50 [3, 34]: > 100 µM
- GI50 ([4]; OVCAR-5): 34.1 µM
- TGI ([4]; OVCAR-5): > 100 µM
- CC50 ([4]; OVCAR-5, read-out: LC50 (the source's name)): > 100 µM
- GI50 ([5]; UACC-257): 9 µM
- TGI ([5]; UACC-257): > 100 µM
- CC50 ([5]; UACC-257, read-out: LC50 (the source's name)): > 100 µM
- GI50 [6]: 5.09 µM
- TGI [6]: 54.7 µM
- CC50 [6, 34]: > 100 µM
- GI50 [7]: 21.1 µM
- TGI [7]: > 100 µM
- CC50 [7, 34]: > 100 µM
- growth, % of control at 10 µM [8]: 19.6%
- growth, % of control at 10 µM [9]: 52.2%
- growth, % of control at 10 µM [10]: 40.5%
- growth, % of control at 10 µM [11]: 68.1%
- growth, % of control at 10 µM [12]: 80%
- growth, % of control at 10 µM [13]: 36.3%
- growth, % of control at 10 µM [14]: 29.2%
- growth, % of control at 10 µM [15]: 14.4%
- growth, % of control at 10 µM [16]: 41.6%
- growth, % of control at 10 µM [17]: 68.4%
- growth, % of control at 10 µM [18]: 59.8%
- growth, % of control at 10 µM [19]: 66.2%
- growth, % of control at 10 µM [20]: 71%
- growth, % of control at 10 µM [21]: 71.3%
- growth, % of control at 10 µM [22]: 74.4%
- growth, % of control at 10 µM [23]: 117%
- growth, % of control at 10 µM [24]: 41.4%
- growth, % of control at 10 µM [25]: 6.66%
- growth, % of control at 10 µM [26]: 53.6%
- growth, % of control at 10 µM [27]: 72.5%
- growth, % of control at 10 µM [28]: 59.6%
- growth, % of control at 10 µM [29]: 72.4%
- growth, % of control at 10 µM [30]: -0.63%
- growth, % of control at 10 µM [31]: 84.7%
- growth, % of control at 10 µM [32]: 36.4%
- growth, % of control at 10 µM [33]: 76.8%

SMILES: COc1ccc(C(=O)/C=C/c2ccc(/C=C/c3ccc(F)cc3)cc2)cc1
- growth, % of control at 10 µM [8]: 104%
- growth, % of control at 10 µM [9]: 106%
- growth, % of control at 10 µM [10]: 94.4%
- growth, % of control at 10 µM [11]: 102%
- growth, % of control at 10 µM [12]: 87.5%
- growth, % of control at 10 µM [13]: 100%
- growth, % of control at 10 µM [14]: 104%
- growth, % of control at 10 µM [15]: 86.3%
- growth, % of control at 10 µM [16]: 101%
- growth, % of control at 10 µM [17]: 109%
- growth, % of control at 10 µM [18]: 104%
- growth, % of control at 10 µM [19]: 113%
- growth, % of control at 10 µM [20]: 120%
- growth, % of control at 10 µM [21]: 117%
- growth, % of control at 10 µM [22]: 91.2%
- growth, % of control at 10 µM [23]: 102%
- growth, % of control at 10 µM [24]: 112%
- growth, % of control at 10 µM [25]: 112%
- growth, % of control at 10 µM [26]: 104%
- growth, % of control at 10 µM [27]: 101%
- growth, % of control at 10 µM [28]: 104%
- growth, % of control at 10 µM [29]: 109%
- growth, % of control at 10 µM [30]: 104%
- growth, % of control at 10 µM [31]: 112%
- growth, % of control at 10 µM [32]: 94.9%
- growth, % of control at 10 µM [33]: 116%

Source: ChEMBL document CHEMBL3132854, “Synthesis and anticancer activity evaluation of resveratrolchalcone conjugates” (2014)
